# In patent US20220324898A1, “PROSTATE SPECIFIC MEMBRANE ANTIGEN (PSMA) LIGANDS COMPRISING AN AMYLASE CLEAVABLE LINKER” (Deutsches Krebsforschungszentrum, priority 2019, published 2022):
# Experiments:
# PSMA = target: T1, PSMA (Homo sapiens, UniProt Q04609); test: Competitive cell binding against 68Ga-labeled PSMA-10 radioligand; conditions: non-labeled compound vs 0.8 nM 68Ga-PSMA-10; first preliminary experiments; read-out: IC50 (50% inhibitory concentration), competitive cell binding
# T1 construct: endogenous in cells
# T1 sequence (Q04609 whole entry): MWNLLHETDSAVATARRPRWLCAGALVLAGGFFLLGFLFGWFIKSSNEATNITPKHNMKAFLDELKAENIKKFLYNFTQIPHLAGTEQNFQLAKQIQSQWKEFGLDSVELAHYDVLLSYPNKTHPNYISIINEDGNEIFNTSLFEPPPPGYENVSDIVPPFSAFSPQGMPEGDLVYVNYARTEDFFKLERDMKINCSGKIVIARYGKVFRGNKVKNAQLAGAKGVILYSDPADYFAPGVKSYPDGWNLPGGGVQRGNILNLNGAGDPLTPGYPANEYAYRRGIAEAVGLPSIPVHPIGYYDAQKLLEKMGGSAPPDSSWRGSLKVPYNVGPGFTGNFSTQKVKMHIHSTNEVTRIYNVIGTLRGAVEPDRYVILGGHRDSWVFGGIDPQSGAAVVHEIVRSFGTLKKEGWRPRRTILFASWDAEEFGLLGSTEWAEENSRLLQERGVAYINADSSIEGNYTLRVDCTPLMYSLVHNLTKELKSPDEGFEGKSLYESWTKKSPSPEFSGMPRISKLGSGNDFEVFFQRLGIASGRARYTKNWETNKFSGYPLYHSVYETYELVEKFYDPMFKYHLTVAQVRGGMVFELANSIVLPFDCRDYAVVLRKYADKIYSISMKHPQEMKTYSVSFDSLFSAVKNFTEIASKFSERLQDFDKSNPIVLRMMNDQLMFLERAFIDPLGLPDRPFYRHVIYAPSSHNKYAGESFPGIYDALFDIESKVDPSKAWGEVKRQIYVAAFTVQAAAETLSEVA
# Method: For the determination of competitive cell binding the cells (10^5 per well) were incubated with a 0.8 nM solution of ^68Ga-labeled radioligand [Glu-urea-Lys(Ahx)]2-HBED-CC (PSMA-10, precursor ordered from ABX, Radeberg, Germany) in the presence of 12 different concentrations of analyte (non-labeled compounds, 0-5000 nM, 100 μL/well). After incubation, the mixture was removed and the wells were washed 3 times with PBS using a multiscreen vacuum manifold (Millipore, Billerica, Mass.). Cell-bound radioactivity was measured using a gamma counter (Packard Cobra II, GMI, Minn., USA). The 50% inhibitory concentration (IC50) values were calculated by fitting the data using a nonlinear regression algorithm (GraphPad Software).
# [1] = target: T2, α-amylase (isolated from the human salivary gland) (Homo sapiens, UniProt P0DUB6); test: Cleavability of the linker by α-amylase, monitored by analytical HPLC; type: in vitro ADME; conditions: in vitro, after 177Lu labeling according to example 1A, analytical HPLC at different times
# T2 construct: incubated with α-amylase (isolated from the human salivary gland, Sigma-Aldrich); purchased Sigma-Aldrich; host or cells: human salivary gland (natural source)
# T2 sequence (P0DUB6 16-511): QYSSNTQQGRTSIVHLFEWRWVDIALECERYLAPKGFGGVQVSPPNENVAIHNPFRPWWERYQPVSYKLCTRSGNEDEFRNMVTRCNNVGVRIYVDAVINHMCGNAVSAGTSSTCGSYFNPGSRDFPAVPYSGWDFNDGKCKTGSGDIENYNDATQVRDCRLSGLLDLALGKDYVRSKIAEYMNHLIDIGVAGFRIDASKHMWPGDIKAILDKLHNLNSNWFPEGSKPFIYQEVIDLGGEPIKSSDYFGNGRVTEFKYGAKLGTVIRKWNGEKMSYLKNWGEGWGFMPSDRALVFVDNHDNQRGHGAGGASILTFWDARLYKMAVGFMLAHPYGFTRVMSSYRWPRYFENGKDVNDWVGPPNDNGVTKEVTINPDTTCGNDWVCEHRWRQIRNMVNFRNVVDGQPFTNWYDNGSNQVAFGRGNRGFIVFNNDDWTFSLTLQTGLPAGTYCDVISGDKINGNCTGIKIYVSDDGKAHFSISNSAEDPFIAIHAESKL
# Method: FIG. 1. The time-dependent cleavability of the compound PSMA-MT by α-amylase is shown. ^177Lu-PSMA-MT was incubated with an α-amylase (isolated from the human salivary gland) and enzymatic cleavage was monitored at different times by analytical HPLC.
# The radiolabelled compound was incubated with α-amylase (isolated from the human salivary gland, Sigma-Aldrich) according to instructions of the manufacturer and enzymatic cleavage was monitored at different times by analytical HPLC (see FIG. 1).
# α-Amylase = target: T3, α-Amylase (Homo sapiens, UniProt P0DUB6); test: α-Amylase digestion of PSMA-MT, analysed by RP-HPLC and MALDI-TOF; type: in vitro ADME
# T3 sequence (P0DUB6 16-511): T2 sequence (P0DUB6 16-511)
# Method: 10 μl of a solution of PSMA-MT in ultrapure water with a concentration of 1 mM were analyzed by analytic RP-HPLC and MALDI-TOF before the digestion. For digestion 10 μl of α-Amylase (1 U/μl in H2O ) were added to 10 μl of a solution of PSMA-MT in ultrapure water with a concentration of 1 mM and incubated at RT for 1 h. The solution was afterwards analyzed with analytic RP-HPLC and MALDI-TOF to evaluate the reaction.
# To investigate the exact digest position of PSMA-MT the different fragments found in the MALDI-TOF after the digest were compared. Two main peaks occurred at 902 g/mol and at 989 g/mol. […] Fragments corresponding to cleavage at cleavage site B could not be detected in the MALDI-TOF.
# LNCaP cells = test: Internalization and cell surface binding of 177Lu-labeled PSMA ligands; type: cell-based; conditions: 30 nM 177Lu-labeled ligand, 45 min, 37° C., blocking with 2-PMPA
# Method: 10^5 LNCaP cells were seeded in poly-L-lysine coated 24-well cell culture plates. 24 h later, wells were washed and the cells incubated with a 30 nM solution of ^177Lu radiolabeled PSMA-ligand (PSMA-617 or PSMA-MT) in 250 μL medium, for 45 min at 37° C. In the blocking experiments, incubation was performed in the presence of excess of 2-PMPA to assess competition for PSMA. Following incubation, PSMA-ligand containing medium was removed by washing 3 times with 1 mL of ice-cold PBS. Cells were subsequently incubated twice with 0.5 mL glycine-HCl in PBS (50 mM, pH=2.8) for 5 min to extract the cell membrane associated fraction. The cells were then washed with 1 mL of ice-cold PBS, and lysed with 0.5 mL 0.3 M NaOH. The membrane bound and lysed (internalized) fractions were assessed for radioactivity levels using a gamma counter (Packard Cobra II, GMI, Minn., USA). Cell uptake was calculated as percent of the initially added radioactivity detected in 10^5 cells [% IA/10^5 cells].
# [2] = Organ distribution of 177Lu-labeled PSMA ligands in LNCaP tumor-bearing mice; type: in vivo, BALB/c nu/nu mice; conditions: 60 pmol via tail vein, mean, n=3; for Organ distribution: Tumor: LNCaP tumor
# Method: 5×10^6 LNCaP cells were subcutaneously inoculated into the right flank of male 6-week-old BALB/c nu/nu mice (Charles River Laboratories). Tumors were grown for ˜3 weeks, to ˜200 mm^3. 60 pmoles of ^177Lu labelled PSMA-ligands were dissolved in 100 μL 0.9% NaCl and injected per mouse. The solution was injected via the tail vein, followed by sacrifice at various time points. Organs of interest (blood, heart, lung, spleen, liver, kidney, muscle, small intestine, brain, tumor, and femur) were dissected, blotted dry, and weighed. The radioactivity was measured using a gamma counter and calculated as % ID/g, and corrected for ^177Lu decay.
# The results are given in the following tables (mean+standard deviation; per time point n=3 animals) (see also FIG. 4): […]
# prostate cancer = conditions: cited from earlier work
SMILES,IC50 (PSMA) [nM],"Specifically cell surface bound (cell uptake), mean (LNCaP cells)","Specifically internalized (cell uptake), mean (LNCaP cells)",Organ distribution: Blood ([2]; 1 h) [% ID/g],Organ distribution: Brain ([2]; 1 h) [% ID/g],Organ distribution: Heart ([2]; 1 h) [% ID/g],Organ distribution: Kidney (first Kidney column) ([2]; 1 h) [% ID/g],Organ distribution: Kidney (second Kidney column) ([2]; 1 h) [% ID/g],Organ distribution: Liver ([2]; 1 h) [% ID/g],Organ distribution: Lung ([2]; 1 h) [% ID/g],Organ distribution: Muscle ([2]; 1 h) [% ID/g],Organ distribution: Small Intestine ([2]; 1 h) [% ID/g],Organ distribution: Spleen ([2]; 1 h) [% ID/g],Organ distribution: Tail ([2]; 1 h) [% ID/g],Organ distribution: Tumor ([2]; 1 h) [% ID/g],Organ distribution: Blood ([2]; 4 h) [% ID/g],Organ distribution: Brain ([2]; 4 h) [% ID/g],Organ distribution: Heart ([2]; 4 h) [% ID/g],Organ distribution: Kidney (first Kidney column) ([2]; 4 h) [% ID/g],Organ distribution: Kidney (second Kidney column) ([2]; 4 h) [% ID/g],also measured
"O=C(O)CCC(NC(=O)NC(CCCCNC(=O)C(Cc1ccc2ccccc2c1)NC(=O)C1CCC(CNC(=O)CCc2ccc(OC3OC(CO)C(OC4OC(CO)C(OC5OC6COC(c7cccc(N8CCN(C(=O)CN9CCN(CC(=O)O)CCN(CC(=O)O)CCN(CC(=O)O)CC9)CC8)c7)OC6C(O)C5O)C(O)C4O)C(O)C3O)cc2)CC1)C(=O)O)C(=O)O (centres unmarked) [PSMA-MT, 1-(4-(3-oxo-3-PSMA-propyl)phenyl)-4″,6″-(3-(4-DOTA-piperazine)benzylidene)maltotriose]",~39,,,,,,,,,,,,,,,,,,,,"Basic cleavability of the linker by α-amylases [1]: demonstrated; Turnover of PSMA-MT on digestion with α-Amylase (original mass peak disappeared) (α-Amylase; 1 h at RT, 1 U/μl α-Amylase, 1 mM PSMA-MT, MALDI-TOF): complete turnover; Alpha-amylase cleavage site whose predicted fragments were found (α-Amylase; MALDI-TOF after digest, fragments for cleavage site B could not be detected): cleavage site A"
"O=C(O)CCC(NC(=O)NC(CCCCNC(=O)C(Cc1ccc2ccccc2c1)NC(=O)C1CCC(CNC(=O)CN2CCN(CC(=O)O)CCN(CC(=O)O)CCN(CC(=O)O)CC2)CC1)C(=O)O)C(=O)O (centres unmarked) [PSMA-617, 2-[3-(1-Carboxy-5-{3-naphthalen-2-yl-2-[(4-{[2-(4,7,10-tris-carboxymethyl-1,4,7,10-tetraaza-cyclododec-1-yl)-acetylamino]-methyl}-cyclohexanecarbonyl) -amino]-propionylamino}-pentyl)-ureido]-pentanedioic acid, reference compound]",~20,,,,,,,,,,,,,,,,,,,,
O=C([O-])CN1CCN(CC(=O)[O-])CCN(CC(=O)N2CCN(c3cccc(C4OCC5OC(OC6C(CO)OC(OC7C(CO)OC(Oc8ccc(CCC(=O)NCC9CCC(C(=O)NC(Cc%10ccc%11ccccc%11c%10)C(=O)NCCCCC(NC(=O)NC(CCC(=O)O)C(=O)O)C(=O)O)CC9)cc8)C(O)C7O)C(O)C6O)C(O)C(O)C5O4)c3)CC2)CCN(CC(=O)[O-])CC1.[177Lu+3] (centres unmarked) [177Lu-PSMA-MT],,"4,86794251 % IA/10^5 cells","2,14459836 % IA/10^5 cells",0.35,0.02,0.16,144.27,142.04,2.07,0.56,0.08,0.15,3.83,4.61,12.83,0.04,0.01,0.04,20.59,19.45,Organ distribution: Liver ([2]; 4 h): 4.58 % ID/g; Organ distribution: Lung ([2]; 4 h): 0.10 % ID/g; Organ distribution: Muscle ([2]; 4 h): 0.02 % ID/g; Organ distribution: Small Intestine ([2]; 4 h): 0.04 % ID/g; Organ distribution: Spleen ([2]; 4 h): 3.94 % ID/g; Organ distribution: Tail ([2]; 4 h): 0.50 % ID/g; Organ distribution: Tumor ([2]; 4 h): 9.18 % ID/g
O=C([O-])CC[C@H](NC(=O)N[C@@H](CCCCNC(=O)[C@H](Cc1ccc2ccccc2c1)NC(=O)C1CCC(CNC(=O)CN2CCN(CC(=O)[O-])CCN(CC(=O)[O-])CCN(CC(=O)[O-])CC2)CC1)C(=O)[O-])C(=O)[O-].[225Ac].[H+].[H+].[H+] (some centres unmarked) [225Ac-PSMA-617],,,,,,,,,,,,,,,,,,,,,PSA value (prostate cancer; both patients): below the detectability limit; Clinical response (prostate cancer; two patients with extremely advanced and end-stage disease): complete remission
"O=C([O-])CN1CCN(CC(=O)[O-])CCN(CC(=O)NCC2CCC(C(=O)N[C@@H](Cc3ccc4ccccc4c3)C(=O)NCCCC[C@H](NC(=O)N[C@@H](CCC(=O)O)C(=O)O)C(=O)O)CC2)CCN(CC(=O)[O-])CC1.[177Lu+3] (some centres unmarked) [177Lu-PSMA-617, reference compound]",,"4,09228993 % IA/10^5 cells","2,63598315 % IA/10^5 cells",0.31,0.02,0.17,143.55,146.77,4.73,0.61,0.07,0.18,5.86,3.46,19.20,0.03,0.01,0.03,5.52,5.50,Organ distribution: Liver ([2]; 4 h): 1.57 % ID/g; Organ distribution: Lung ([2]; 4 h): 0.08 % ID/g; Organ distribution: Muscle ([2]; 4 h): 0.01 % ID/g; Organ distribution: Small Intestine ([2]; 4 h): 0.04 % ID/g; Organ distribution: Spleen ([2]; 4 h): 1.20 % ID/g; Organ distribution: Tail ([2]; 4 h): 0.78 % ID/g; Organ distribution: Tumor ([2]; 4 h): 14.77 % ID/g
